This is an account of results in ChEMBL document CHEMBL1821652, “QSAR models for predicting enzymatic hydrolysis of new chemical entities in 'soft-drug' design” (Bioorg Med Chem, 2009).

Broadly, the half-life is how long it takes for the measured level to halve. Read a high half-life as slow decline.

System in one data set: not listed separately
Put plainly: (§1) Half life in human plasma. Type of data set: ADME, cell-free.
As to `CCCN(CCC)Cc1cccc(C(=O)OCCOCn2cnc3c(=O)[nH]c(N)nc32)c1`, the half-life came to 0.8 min.
The same measure, in the same setting: as for `CC(=O)Oc1ccc(CCNC(=O)CCCC[C@@H]2CCSS2)cc1OC(C)=O`, the figure is 10.3 min; as for `CCOC(=O)CN(C)C(=O)OCOC(=O)[C@@H](C)c1ccc2cc(OC)ccc2c1`, 2.72 min.
The compound `O=C(CCCC[C@@H]1CCSS1)NCCc1ccc(O)c(O)c1` displayed a half-life of 81 min.
Same read-out and setting: as for `CC(C)C[C@H](NC(=O)[C@H](Cc1ccccc1)NC(=O)CNC(=O)CN1C(=O)[C@H](Cc2ccc(O)cc2)NC12CCCC2)C(=O)O`, the figure is 334 min; as for `Nc1nc(O)c2ncn(COCCOC(=O)c3ccc(CN4CCOCC4)cc3)c2n1`, 3.7 min; as for `COC(=O)[C@@H]1CCCN1C(=O)OCOC(=O)c1ccccc1`, 3.48 min.
Turning to `Cc1cn([C@H]2C=C[C@@H](COC(=O)CN3CCN(c4cc5c(cc4F)c(=O)c(C(=O)O)cn5C4CC4)CC3)O2)c(=O)[nH]c1=O`, the half-life was 240 min. Compared with the last compound, the half-life is about 69-fold higher.
As to `CCN(CC)CC(=O)OCCn1c([N+](=O)[O-])cnc1C.Cl`, the half-life was 33.6 min.
On the same count and under the same terms, as for `CCOC(=O)c1ccc(/N=N/N(C)C(=O)OCOC(C)=O)cc1`, the figure is 12 min.
For the compound `Nc1nc2c(ncn2COCCOC(=O)c2cccc(CN3CCOCC3)c2)c(=O)[nH]1`, the half-life was 4.6 min.
In the case of `CCN(CC)C(=O)COC(=O)[C@@H](C)c1ccc(CC(C)C)cc1`, the half-life turned out to be 1.4 min. Compared with the last compound, the half-life is about 3.3-fold lower.
Same read-out and setting: for `C[C@H](NC(=O)[C@H](N)CCC(=O)OCc1ccc([N+](=O)[O-])cc1)C(=O)O` the value was 6.8 min; for `CCN(CC)C(=O)COC(=O)[C@H](C)c1ccc(CC(C)C)cc1`, 1 min; for `C[C@@H](C(=O)OCC(=O)N(C)C)c1ccc(-c2ccccc2)c(F)c1`, 1.1 min.
The same measure, in the same setting: for `CCN(CC)C(=O)COC(=O)[C@H]1O[C@@H](Oc2cc3oc(-c4ccc(O)cc4)cc(=O)c3c(O)c2O)[C@H](O)[C@@H](O)[C@@H]1O` the value was 10 min; for `CCOC(=O)CN(COC(=O)[C@@H]1N2C(=O)[C@@H](NC(=O)c3c(-c4c(Cl)cccc4Cl)noc3C)[C@H]2SC1(C)C)C(=O)c1ccccc1`, 10.1 min; for `Cc1cn([C@H]2C=C[C@@H](COC(=O)CN3CCNCC3)O2)c(=O)[nH]c1=O`, 20 min.
In the case of `Cc1ncc([N+](=O)[O-])n1CCOC(=O)c1ccccc1C(=O)OCCn1c([N+](=O)[O-])cnc1C`, the half-life worked out at 743 min.
Compound `CN(C)Cc1cccc(C(=O)OCCOCn2cnc3c(=O)[nH]c(N)nc32)c1` yielded a half-life of 7 min.
As to `CC(=O)OCOC(=O)N(C)/N=N/c1ccc(Br)cc1`, the half-life is 17 min.
Still for that read-out and setting: for `CCOC(=O)CNC(=O)OCOC(=O)Cc1ccccc1Nc1c(Cl)cccc1Cl` the value was 4.17 min; for `CCC[C@@H]1O[C@@H]2C[C@H]3[C@@H]4C[C@H](F)C5=CC(=O)CC[C@]5(C)[C@@]4(F)[C@@H](O)C[C@]3(C)[C@]2(S[C@@H]2CCOC2=O)O1`, 5 min.
The same measure, in the same setting: as for `C[C@H](NC(=O)[C@H](N)CCC(=O)OCc1ccc(F)cc1)C(=O)O`, the figure is 120 min.
The same measure, in the same setting: as for `CC(=O)OCOC(=O)N(C)/N=N/c1ccc(C#N)cc1`, the figure is 7 min; as for `CCCC(CCC)C(=O)OCN(C)C(=O)c1ccccc1`, 384 min.
For the compound `N[C@@H](CC(=O)O)C(=O)O[C@H]1C[C@H](n2cc(F)c(=O)[nH]c2=O)O[C@@H]1CO`, the half-life is 53.9 min. This half-life is about 7.1-fold lower than that of the compound before.
The compound `O=C(O[C@H]1C[C@H](n2cc(F)c(=O)[nH]c2=O)O[C@@H]1CO)[C@@H]1CCCN1` showed a half-life of 13.8 min.
Still for that read-out and setting: as for `CSCOC(=O)[C@@]1(O)CC[C@H]2[C@@H]3CCC4=CC(=O)C=C[C@]4(C)[C@H]3[C@@H](O)C[C@@]21C`, the figure is 2100 min; as for `CCOC(=O)CNC(=O)OCOC(=O)c1ccccc1`, 0.24 min.
Still for that read-out and setting: as for `CC(C)C[C@H]1NC(=O)[C@H](Cc2ccccc2)NC(=O)CNC(=O)[C@@H](C)NC(=O)[C@H](Cc2ccc(O)cc2)NC(=O)/C=C\c2ccccc2OCOC1=O`, the figure is 264 min; as for `CCOC(=O)[C@H]1O[C@@H](Oc2cc3oc(-c4ccc(O)cc4)cc(=O)c3c(O)c2O)[C@H](O)[C@@H](O)[C@@H]1O`, 273 min; as for `CCC1CCN(CC(=O)OCCn2c([N+](=O)[O-])cnc2C)CC1`, 46.5 min.
Regarding `CC(C)C[C@@H](NC(=O)[C@H](Cc1ccccc1)NC(=O)CNC(=O)[C@@H](C)NC(=O)[C@@H](N)Cc1ccc(O)cc1)C(=O)O` [DADLE], the half-life was over 1440 min.
`CC(C)C[C@H]1NC(=O)[C@H](Cc2ccccc2)NC(=O)CNC(=O)[C@@H](C)NC(=O)[C@H](Cc2ccc(O)cc2)NC(=O)OCOC1=O`: the half-life came out at 124 min.
Same read-out and setting: for `CCCCC/C=C\C/C=C\C/C=C\CCCCC(=O)OCn1cnc2c1c(=O)n(C)c(=O)n2C` the value was 27.3 min; for `CCN(CC)Cc1cccc(C(=O)OCCOCn2cnc3c(=O)[nH]c(N)nc32)c1`, 7.5 min; for `O=C(OC[C@H]1O[C@@H](n2cc(F)c(=O)[nH]c2=O)C[C@@H]1O)[C@@H]1CCCN1`, 5.7 min.
`CCCCCCCCCCOC(=O)[C@H](Cc1ccccc1)NC(=O)CN.Cl`: the half-life came to 61.5 min.
In turn, `CC(C)Cc1ccc([C@@H](C)C(=O)OCC(=O)N(C)C)cc1` displayed a half-life of 1.5 min.
Same read-out and setting: for `NCCCC[C@H](N)C(=O)OC[C@H]1O[C@@H](n2cc(F)c(=O)[nH]c2=O)C[C@@H]1O` the value was 38.8 min; for `COC(=O)O[C@]1(C(=O)OCCl)CC[C@H]2[C@@H]3CCC4=CC(=O)CC[C@]4(C)[C@H]3[C@@H](O)C[C@@]21C`, 960 min; for `CC(C)(C)C(=O)Oc1ccc2c3c1O[C@H]1C(=O)CC[C@@]4(O)[C@@H](C2)N(CC2CC2)CC[C@]314`, 562 min.
Still for that read-out and setting: as for `CC(=O)OCOC(=O)N(C)/N=N/c1ccc(C)cc1`, the figure is 15 min; as for `CC(C)C[C@H](NC(=O)[C@H](Cc1ccccc1)NC(=O)CNC(=O)CN1C(=O)[C@H](Cc2ccc(O)cc2)NC12CCC(C)CC2)C(=O)O` (stereo not given in full), 1130 min; as for `CN(C)Cc1ccc(C(=O)OCCOCn2cnc3c(=O)[nH]c(N)nc32)cc1`, 33 min.
For the compound `CCOC(=O)c1ccc(/N=N/N(C)C(=O)OCOC(=O)c2ccccc2O)cc1`, the half-life was 34 min.
`CSCOC(=O)[C@@]1(O)CC[C@H]2[C@@H]3CCC4=CC(=O)CC[C@]4(C)[C@H]3[C@@H](O)C[C@@]21C` came in with a half-life of 2280 min.
The same measure, in the same setting: as for `CC(C)Cc1ccc([C@@H](C)C(=O)OCCn2ccnc2)cc1`, the figure is 19 min.
The same measure, in the same setting: as for `CCC(=O)O[C@]1(C(=O)OCCl)CC[C@H]2[C@@H]3CCC4=CC(=O)CC[C@]4(C)[C@H]3[C@@H](O)C[C@@]21C`, the figure is 318 min.
Still for that read-out and setting: for `C[C@@H](C(=O)OCCn1ccnc1)c1ccc(-c2ccccc2)c(F)c1` the value was 18 min.
Take `NCCCC[C@H](N)C(=O)O[C@H]1C[C@H](n2cc(F)c(=O)[nH]c2=O)O[C@@H]1CO`: the half-life came to 51 min.
Same read-out and setting: for `CCOC(=O)c1ccc(/N=N/N(C)C(=O)OCOC(=O)c2ccccc2OC(C)=O)cc1` the value was 1 min.
Same read-out and setting: as for `CCCN(CCC)Cc1ccc(C(=O)OCCOCn2cnc3c(=O)[nH]c(N)nc32)cc1`, the figure is 9 min; as for `CCCCC(=O)OCn1cnc2c1c(=O)n(C)c(=O)n2C`, 0.19 min.
Same read-out and setting: for `CCCSc1ccc2c(c1)nc(NC(=O)OC)n2COC(=O)c1ccc(CN)cc1.Cl.Cl` the value was 55.8 min.
`CC(C)CC(=O)Oc1ccc2c3c1O[C@H]1C(=O)CC[C@@]4(O)[C@@H](C2)N(CC2CC2)CC[C@]314` gave a half-life of 32.4 min.
Same read-out and setting: for `CCC(CC)C(=O)Oc1ccc2c3c1O[C@H]1C(=O)CC[C@@]4(O)[C@@H](C2)N(CC2CC2)CC[C@]314` the value was 2680 min; for `Cc1ncc([N+](=O)[O-])n1CCOC(=O)CCCC(=O)OCCn1c([N+](=O)[O-])cnc1C`, 36.6 min; for `C[C@H](C(=O)OCCn1ccnc1)c1ccc(-c2ccccc2)c(F)c1`, 445 min.
Consider `COC(=O)[C@H](Cc1ccc(O)c(O)c1)NC(=O)CCCC[C@@H]1CCSS1`, for which the half-life came to 97.8 min.
Same read-out and setting: as for `CCN(CC)Cc1ccc(C(=O)OCCOCn2cnc3c(=O)[nH]c(N)nc32)cc1`, the figure is 17 min; as for `Cc1ncc([N+](=O)[O-])n1CCOC(=O)CCCCCCCCC(=O)OCCn1c([N+](=O)[O-])cnc1C`, 10.2 min; as for `CCN(CC)CC(=O)N(COC(=O)C(C)(C)C)c1c(C)cccc1C`, 280 min.
On the same count and under the same terms, as for `C[C@]12CCC(=O)C=C1CC[C@@H]1[C@@H]2[C@@H](O)C[C@@]2(C)[C@H]1CC[C@]2(O)C(=O)OCCl`, the figure is 132 min; as for `CC(C)C[C@H]1NC(=O)[C@H](Cc2ccccc2)NC(=O)CNC(=O)[C@@H](C)NC(=O)[C@H](Cc2ccc(O)cc2)NC(=O)/C=C\c2ccccc2OC1=O`, 72 min; as for `Cc1nccn1CCOC(=O)[C@H](C)c1ccc(-c2ccccc2)c(F)c1`, 38 min.
For `Cc1nccn1CCOC(=O)[C@@H](C)c1ccc(-c2ccccc2)c(F)c1`, the half-life came to 355 min. Against the preceding compound, the half-life is about 9.3-fold higher.
The same measure, in the same setting: as for `Cc1nccn1CCOC(=O)[C@@H](C)c1ccc(CC(C)C)cc1`, the figure is 135 min; as for `CC1(C)O[C@@H]2C[C@H]3[C@@H]4C[C@H](F)C5=CC(=O)C=C[C@]5(C)[C@@]4(F)[C@@H](O)C[C@]3(C)[C@]2(S[C@H]2CCOC2=O)O1`, 4 min.

The next data set relates to Plasma. The description is as §1. Type of data set: ADME, cell-free.
For the compound `CC(C)[C@H](N)C(=O)OCCOCn1cnc2c(=O)[nH]c(N)nc21` (stereo in doubt; 167) [VALACYCLOVIR], the t1/2 came out at 428 min.
Still for that read-out and setting: for `COC(=O)[C@H](Cc1ccc(OC(C)=O)c(OC(C)=O)c1)NC(=O)CCC(=O)N[C@@H](Cc1ccc(OC(C)=O)c(OC(C)=O)c1)C(=O)OC` the value was 13.9 min; for `CC(C)[N+](C)(CCOC(=O)C1c2ccccc2Oc2ccccc21)C(C)C` [PROPANTHELINE], 370 min; for `CC(C)C[C@H](NC(=O)[C@H](Cc1ccccc1)NC(=O)CNC(=O)CNC(=O)[C@@H](N)Cc1ccc(O)cc1)C(=O)O` [ENKEPHALIN], 810 min.
`COC(=O)[C@H](Cc1ccc(OC(C)=O)c(OC(C)=O)c1)NC(=O)CCCCC(=O)N[C@@H](Cc1ccc(OC(C)=O)c(OC(C)=O)c1)C(=O)OC` showed a t1/2 of 8 min.
